Results: patent US20250120967A1, “TYROSINE KINASES INHIBITORS AND USES THEREOF” (GREAT NOVEL THERAPEUTICS BIOTECH & MEDICALS CORPORATION, priority 2023, published 2025)

Tests used:
Test in all cases: Tyrosine kinase inhibition assay
Format in all cases: biochemical
Settings in all cases: single concentration 1.0 μM, read-out: percent inhibition
PTK6 (Brk) = PTK6 (Brk) (Homo sapiens, UniProt Q13882)
How it was run: (§1)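 Single-point screen, 1.0 μM compound, 1% DMSO final; ATP at apparent Km. Buffer: 50 mM HEPES pH 7.5, 0.01% BRIJ-35, 10 mM MgCl2, 1 mM EGTA. Z′-LYTE readout, % inhibition; hit = >80%.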

ZAP70 = biological target: T1, ZAP70 (Homo sapiens, UniProt P43403)
T1 sequence (P43403 1-619): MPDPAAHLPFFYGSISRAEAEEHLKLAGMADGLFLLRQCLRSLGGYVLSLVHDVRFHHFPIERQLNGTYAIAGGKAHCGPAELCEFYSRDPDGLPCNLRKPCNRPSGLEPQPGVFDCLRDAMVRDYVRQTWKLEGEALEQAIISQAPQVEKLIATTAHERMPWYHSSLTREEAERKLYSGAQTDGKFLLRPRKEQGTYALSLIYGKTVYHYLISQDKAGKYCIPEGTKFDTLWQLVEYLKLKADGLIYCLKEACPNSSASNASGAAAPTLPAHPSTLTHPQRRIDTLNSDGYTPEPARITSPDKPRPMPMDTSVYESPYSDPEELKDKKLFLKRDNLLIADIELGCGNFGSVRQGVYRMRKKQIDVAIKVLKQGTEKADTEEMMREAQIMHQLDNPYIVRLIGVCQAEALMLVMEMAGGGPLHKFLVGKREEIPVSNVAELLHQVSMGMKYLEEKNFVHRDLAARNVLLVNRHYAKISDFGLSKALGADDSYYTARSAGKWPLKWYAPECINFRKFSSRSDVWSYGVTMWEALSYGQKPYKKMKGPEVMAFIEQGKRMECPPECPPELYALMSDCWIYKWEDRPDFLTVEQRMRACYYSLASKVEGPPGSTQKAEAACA
How it was run: as §1

EPHB1 = biological target: T2, EPHB1 (Homo sapiens, UniProt P54762)
T2 sequence (P54762 18-984): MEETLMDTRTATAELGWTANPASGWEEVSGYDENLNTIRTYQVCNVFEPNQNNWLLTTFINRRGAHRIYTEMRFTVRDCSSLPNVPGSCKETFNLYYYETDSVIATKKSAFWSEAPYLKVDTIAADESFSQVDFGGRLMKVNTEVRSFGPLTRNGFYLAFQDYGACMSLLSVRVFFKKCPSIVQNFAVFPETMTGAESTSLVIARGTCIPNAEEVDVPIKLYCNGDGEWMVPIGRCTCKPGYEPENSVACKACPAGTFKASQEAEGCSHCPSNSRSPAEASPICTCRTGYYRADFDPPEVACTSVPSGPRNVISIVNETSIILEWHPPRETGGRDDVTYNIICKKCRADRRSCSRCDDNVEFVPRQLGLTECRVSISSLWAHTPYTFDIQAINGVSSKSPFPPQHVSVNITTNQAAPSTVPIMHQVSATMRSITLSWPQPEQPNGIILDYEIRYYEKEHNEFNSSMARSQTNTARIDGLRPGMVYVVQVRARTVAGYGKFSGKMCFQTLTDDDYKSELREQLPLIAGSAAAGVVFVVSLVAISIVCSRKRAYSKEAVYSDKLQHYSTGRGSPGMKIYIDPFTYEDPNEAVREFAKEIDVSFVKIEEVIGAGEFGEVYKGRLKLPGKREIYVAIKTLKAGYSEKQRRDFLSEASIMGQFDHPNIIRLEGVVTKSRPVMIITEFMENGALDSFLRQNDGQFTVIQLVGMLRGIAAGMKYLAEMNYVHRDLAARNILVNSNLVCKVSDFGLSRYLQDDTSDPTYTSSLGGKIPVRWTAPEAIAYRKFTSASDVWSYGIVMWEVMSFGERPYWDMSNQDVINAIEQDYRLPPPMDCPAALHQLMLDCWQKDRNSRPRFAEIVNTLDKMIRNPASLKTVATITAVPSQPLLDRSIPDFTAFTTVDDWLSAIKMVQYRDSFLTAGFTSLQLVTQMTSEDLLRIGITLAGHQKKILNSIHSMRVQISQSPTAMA
How it was run: as §1

ITK = biological target: T3, ITK (Homo sapiens, UniProt Q08881)
T3 sequence (Q08881 1-620): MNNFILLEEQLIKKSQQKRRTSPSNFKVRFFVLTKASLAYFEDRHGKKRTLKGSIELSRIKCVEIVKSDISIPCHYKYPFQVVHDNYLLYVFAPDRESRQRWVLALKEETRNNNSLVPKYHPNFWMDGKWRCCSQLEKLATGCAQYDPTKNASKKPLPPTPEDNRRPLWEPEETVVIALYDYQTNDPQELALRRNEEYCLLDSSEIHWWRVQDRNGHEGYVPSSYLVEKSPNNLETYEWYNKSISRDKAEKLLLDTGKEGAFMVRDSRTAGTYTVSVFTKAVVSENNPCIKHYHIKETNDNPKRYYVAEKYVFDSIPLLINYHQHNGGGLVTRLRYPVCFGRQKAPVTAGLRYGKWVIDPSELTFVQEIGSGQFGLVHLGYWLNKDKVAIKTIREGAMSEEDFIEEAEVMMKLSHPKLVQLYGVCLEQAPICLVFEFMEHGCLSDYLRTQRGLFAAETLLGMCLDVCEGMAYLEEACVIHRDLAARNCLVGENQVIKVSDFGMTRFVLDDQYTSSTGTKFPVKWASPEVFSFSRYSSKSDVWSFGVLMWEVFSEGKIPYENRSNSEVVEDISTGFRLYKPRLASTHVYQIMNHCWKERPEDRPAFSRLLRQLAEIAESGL
How it was run: as §1

DDR1 = DDR1 (Homo sapiens, UniProt Q08345)
How it was run: as §1

[1] = biological target: PIK3CB/PIK3R1 (p110 beta/p85 alpha) (Homo sapiens, UniProt P42338)
How it was run: as §1

AKT3 (PKB gamma) = AKT3 (PKB gamma) (Homo sapiens, UniProt Q9Y243)
How it was run: as §1

Sequence of DDR1 (Q08345 19-913): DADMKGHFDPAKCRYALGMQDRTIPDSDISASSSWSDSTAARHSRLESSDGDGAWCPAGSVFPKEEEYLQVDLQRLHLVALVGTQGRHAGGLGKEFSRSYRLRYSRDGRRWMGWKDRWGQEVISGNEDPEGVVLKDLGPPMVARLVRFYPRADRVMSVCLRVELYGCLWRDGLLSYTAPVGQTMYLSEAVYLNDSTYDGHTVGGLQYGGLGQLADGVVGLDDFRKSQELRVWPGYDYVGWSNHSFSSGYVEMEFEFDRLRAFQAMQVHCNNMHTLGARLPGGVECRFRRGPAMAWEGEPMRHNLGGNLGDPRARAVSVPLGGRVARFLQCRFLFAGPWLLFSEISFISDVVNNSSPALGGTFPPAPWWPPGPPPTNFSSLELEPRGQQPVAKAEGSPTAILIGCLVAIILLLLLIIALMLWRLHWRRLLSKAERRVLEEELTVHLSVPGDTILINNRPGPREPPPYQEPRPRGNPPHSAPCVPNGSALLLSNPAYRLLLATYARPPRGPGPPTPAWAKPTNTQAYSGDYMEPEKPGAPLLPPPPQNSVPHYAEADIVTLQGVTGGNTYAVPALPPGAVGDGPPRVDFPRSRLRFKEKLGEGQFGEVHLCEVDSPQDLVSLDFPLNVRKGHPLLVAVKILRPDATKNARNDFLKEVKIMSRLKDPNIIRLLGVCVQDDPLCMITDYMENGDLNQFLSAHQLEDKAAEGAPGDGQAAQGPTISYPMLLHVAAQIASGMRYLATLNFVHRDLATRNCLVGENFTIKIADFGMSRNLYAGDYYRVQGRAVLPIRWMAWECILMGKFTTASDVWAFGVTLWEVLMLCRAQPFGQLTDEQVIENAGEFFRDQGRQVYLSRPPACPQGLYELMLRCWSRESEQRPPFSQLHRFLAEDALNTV
Sequence of AKT3 (PKB gamma) (Q9Y243 whole entry): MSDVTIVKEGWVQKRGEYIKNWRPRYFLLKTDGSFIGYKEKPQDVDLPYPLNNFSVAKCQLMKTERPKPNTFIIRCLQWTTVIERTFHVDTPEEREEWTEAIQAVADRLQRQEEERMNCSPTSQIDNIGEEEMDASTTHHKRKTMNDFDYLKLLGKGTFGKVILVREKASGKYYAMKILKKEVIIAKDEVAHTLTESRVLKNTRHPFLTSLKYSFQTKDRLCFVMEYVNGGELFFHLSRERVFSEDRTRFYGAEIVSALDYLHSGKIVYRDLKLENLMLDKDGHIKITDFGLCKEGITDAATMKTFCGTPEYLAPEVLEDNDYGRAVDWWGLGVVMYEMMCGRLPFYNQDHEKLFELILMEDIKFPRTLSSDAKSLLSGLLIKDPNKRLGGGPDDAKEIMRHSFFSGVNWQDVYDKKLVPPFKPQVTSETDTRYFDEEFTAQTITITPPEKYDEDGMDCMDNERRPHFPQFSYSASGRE
Sequence of PTK6 (Brk) (Q13882 whole entry): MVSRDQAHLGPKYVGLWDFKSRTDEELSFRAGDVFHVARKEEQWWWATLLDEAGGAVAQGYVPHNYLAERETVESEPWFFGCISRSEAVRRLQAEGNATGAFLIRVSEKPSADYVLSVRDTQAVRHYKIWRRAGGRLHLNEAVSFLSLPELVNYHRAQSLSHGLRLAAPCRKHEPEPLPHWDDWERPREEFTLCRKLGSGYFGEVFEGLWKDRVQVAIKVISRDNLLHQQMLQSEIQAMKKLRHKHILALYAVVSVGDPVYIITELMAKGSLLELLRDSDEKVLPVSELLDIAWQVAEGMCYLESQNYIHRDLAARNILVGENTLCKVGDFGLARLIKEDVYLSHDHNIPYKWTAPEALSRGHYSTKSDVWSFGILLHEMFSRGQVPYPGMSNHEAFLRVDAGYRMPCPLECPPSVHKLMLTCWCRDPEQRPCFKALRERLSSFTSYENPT
Sequence of PIK3CB/PIK3R1 (p110 beta/p85 alpha) (P42338 whole entry): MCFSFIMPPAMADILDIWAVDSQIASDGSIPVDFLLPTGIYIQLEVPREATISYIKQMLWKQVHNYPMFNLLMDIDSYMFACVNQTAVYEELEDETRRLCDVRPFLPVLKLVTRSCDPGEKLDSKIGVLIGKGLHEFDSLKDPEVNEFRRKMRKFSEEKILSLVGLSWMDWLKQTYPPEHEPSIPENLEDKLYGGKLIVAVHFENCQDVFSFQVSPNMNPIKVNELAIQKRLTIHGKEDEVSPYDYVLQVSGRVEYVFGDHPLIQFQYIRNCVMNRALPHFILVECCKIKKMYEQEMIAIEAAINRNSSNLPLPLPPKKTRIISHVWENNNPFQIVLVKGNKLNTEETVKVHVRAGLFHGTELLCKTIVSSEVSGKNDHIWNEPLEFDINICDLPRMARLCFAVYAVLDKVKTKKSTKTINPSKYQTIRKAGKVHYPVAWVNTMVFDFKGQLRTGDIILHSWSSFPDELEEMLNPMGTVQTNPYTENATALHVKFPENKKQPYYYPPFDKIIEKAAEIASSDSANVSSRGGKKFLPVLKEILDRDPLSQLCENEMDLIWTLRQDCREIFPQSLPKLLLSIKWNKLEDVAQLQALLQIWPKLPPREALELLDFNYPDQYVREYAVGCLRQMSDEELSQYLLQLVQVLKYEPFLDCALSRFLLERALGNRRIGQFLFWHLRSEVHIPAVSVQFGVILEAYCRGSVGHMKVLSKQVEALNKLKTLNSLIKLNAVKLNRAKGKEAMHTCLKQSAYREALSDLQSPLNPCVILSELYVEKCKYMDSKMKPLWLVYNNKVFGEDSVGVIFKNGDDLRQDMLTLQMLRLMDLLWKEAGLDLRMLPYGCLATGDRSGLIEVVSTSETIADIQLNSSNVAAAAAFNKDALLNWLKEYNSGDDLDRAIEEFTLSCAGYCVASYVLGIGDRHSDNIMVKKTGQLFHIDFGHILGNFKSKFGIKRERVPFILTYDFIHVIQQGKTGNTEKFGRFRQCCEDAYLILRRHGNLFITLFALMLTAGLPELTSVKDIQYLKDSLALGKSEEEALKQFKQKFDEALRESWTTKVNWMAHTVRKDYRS
Sequence of PIK3CB/PIK3R1 (p110 beta/p85 alpha) (P27986 whole entry partner): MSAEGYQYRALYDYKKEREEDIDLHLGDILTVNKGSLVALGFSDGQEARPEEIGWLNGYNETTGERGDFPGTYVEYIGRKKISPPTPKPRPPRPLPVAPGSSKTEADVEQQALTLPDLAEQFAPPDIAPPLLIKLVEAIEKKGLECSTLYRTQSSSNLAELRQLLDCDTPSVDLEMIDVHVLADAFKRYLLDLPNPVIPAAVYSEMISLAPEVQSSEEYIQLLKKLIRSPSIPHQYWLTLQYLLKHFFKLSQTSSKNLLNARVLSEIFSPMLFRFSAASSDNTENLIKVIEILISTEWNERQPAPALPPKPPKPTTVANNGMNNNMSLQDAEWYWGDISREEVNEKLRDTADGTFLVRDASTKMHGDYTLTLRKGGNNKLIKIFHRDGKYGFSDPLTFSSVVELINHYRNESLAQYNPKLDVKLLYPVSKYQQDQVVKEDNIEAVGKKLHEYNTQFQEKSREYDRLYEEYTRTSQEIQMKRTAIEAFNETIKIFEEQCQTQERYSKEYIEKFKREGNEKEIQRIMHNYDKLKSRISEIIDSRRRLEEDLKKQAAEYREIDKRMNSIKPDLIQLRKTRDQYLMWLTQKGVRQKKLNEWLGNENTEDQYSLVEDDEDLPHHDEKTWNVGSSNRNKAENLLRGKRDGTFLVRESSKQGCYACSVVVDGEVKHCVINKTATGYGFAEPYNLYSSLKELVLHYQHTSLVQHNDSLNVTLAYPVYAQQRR

Row | Structure (SMILES) | inhibition at 1 µM (PTK6 (Brk)) [%] | inhibition at 1 µM (ZAP70) [%] | inhibition at 1 µM (EPHB1) [%] | inhibition at 1 µM (ITK) [%] | inhibition at 1 µM (DDR1) [%] | inhibition at 1 µM [1] [%] | inhibition at 1 µM (AKT3 (PKB gamma)) [%]
1 | COc1cc2nccc(Oc3ccc(NC(=O)C4(C(=O)Nc5ccc(F)cc5)CC4)cc3)c2cc1OC [Cabozantinib, reference compound] | 103 | 13 | 99 | 15 | 100 | 2 | 8
2 | COc1cc2nccc(Oc3ccc(NC(=O)C4(NC(=O)c5ccc(F)cc5)CC4)cc3F)c2cc1OC [Cbo-02, N-(1-((4-((6,7-diMethoxyquinolin-4-yl)oxy)-3-fluorophenyl)carbamoyl)cyclopropyl)-4-fluorobenzamide] | 73 | 14 | 37 | 8 | 51 | 3 | 5
3 | COc1cc2nccc(Oc3ccc(NC(=O)C4(NC(=O)c5ccc(F)cc5)CC4)cc3F)c2cc1Oc1ccc(N)cc1F [Cbo-10] | 91 | 6 | 74 | 25 | 50 | 22 | 7
4 | COc1cc2nccc(Oc3ccc(NC(=O)C4(NC(=O)c5ccc(F)cc5)CC4)cc3F)c2cc1Oc1c(F)cc(N)cc1F [Cbo-14] | 94 | 9 | 75 | 28 | 53 | 0 | 6
5 | COc1cc2nccc(Oc3ccc(NC(=O)C4(C(=O)Nc5ccc(F)cc5)CC4)cc3F)c2cc1Oc1ccc(N)cc1F [Cbo-23] | 97 | 5 | 99 | 54 | 92 | -4 | -1
